Data reported in patent US8415469B2, “Compounds and methods for kinase modulation, and indications therefor” (Plexxikon Inc., priority 2005, dated 2013).

Columns and labels:
Type in all cases: biochemical
B-Raf V600E = molecular target: T1, B-Raf V600E (Homo sapiens, UniProt P15056, V600E); assay: AlphaScreen kinase assay, B-Raf V600E; settings: read-out: IC50, activity toward kinase B-Raf V600E
T1 construct: P4254. pFastBacBD-CDC37 BRAF D437-K722-X, V600E; His6 with pFastBac HT leader (TEV site) (N); made in house; host or cells: Sf9 (baculovirus; chaperone CDC37 co-expressed)
T1 sequence (P15056 with tags, fused parts or gaps V600E): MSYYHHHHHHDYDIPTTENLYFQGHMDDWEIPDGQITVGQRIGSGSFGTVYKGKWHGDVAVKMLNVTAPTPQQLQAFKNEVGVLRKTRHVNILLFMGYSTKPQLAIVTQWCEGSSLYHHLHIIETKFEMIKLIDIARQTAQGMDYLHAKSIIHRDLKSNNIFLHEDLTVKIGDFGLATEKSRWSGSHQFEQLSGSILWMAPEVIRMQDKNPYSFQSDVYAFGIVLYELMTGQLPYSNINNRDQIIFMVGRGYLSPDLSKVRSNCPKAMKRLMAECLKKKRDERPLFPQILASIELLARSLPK

Fms = molecular target: T2, Fms (Homo sapiens, UniProt P07333); assay: AlphaScreen kinase assay, Fms; settings: read-out: IC50, activity toward kinase Fms
T2 construct: purchased Upstate Biotechnology
T2 sequence (P07333 20-972): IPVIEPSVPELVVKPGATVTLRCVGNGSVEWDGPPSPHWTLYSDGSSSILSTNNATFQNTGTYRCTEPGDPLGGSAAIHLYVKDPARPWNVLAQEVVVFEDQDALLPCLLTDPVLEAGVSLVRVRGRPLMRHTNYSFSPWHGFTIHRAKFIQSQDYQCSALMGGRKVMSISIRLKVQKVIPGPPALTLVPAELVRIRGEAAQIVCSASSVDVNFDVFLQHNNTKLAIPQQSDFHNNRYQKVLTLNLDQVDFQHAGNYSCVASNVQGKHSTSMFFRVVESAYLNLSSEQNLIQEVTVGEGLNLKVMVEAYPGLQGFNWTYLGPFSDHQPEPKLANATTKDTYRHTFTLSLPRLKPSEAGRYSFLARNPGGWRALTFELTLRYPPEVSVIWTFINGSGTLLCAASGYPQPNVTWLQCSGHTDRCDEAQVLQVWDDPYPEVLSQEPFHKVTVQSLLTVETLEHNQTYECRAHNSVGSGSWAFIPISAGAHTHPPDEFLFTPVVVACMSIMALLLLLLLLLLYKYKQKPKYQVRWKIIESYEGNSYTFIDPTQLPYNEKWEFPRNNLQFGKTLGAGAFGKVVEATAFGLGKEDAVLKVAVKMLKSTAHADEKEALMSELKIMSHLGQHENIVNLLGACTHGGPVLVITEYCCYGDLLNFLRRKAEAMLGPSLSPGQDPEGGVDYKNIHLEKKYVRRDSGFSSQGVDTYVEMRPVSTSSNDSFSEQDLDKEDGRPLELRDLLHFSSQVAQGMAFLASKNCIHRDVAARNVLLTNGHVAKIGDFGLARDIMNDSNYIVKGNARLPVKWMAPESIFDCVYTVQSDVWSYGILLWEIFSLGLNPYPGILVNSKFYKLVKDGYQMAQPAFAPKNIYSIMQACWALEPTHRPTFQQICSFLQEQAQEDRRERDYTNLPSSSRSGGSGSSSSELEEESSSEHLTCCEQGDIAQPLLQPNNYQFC

Kit = molecular target: T3, Kit (Homo sapiens, UniProt P10721); assay: AlphaScreen kinase assay, Kit; settings: read-out: IC50, activity toward kinase Kit
T3 construct: P1332.N6 BI PTP KIT M552-K948-X COD; His6 (N); made in house; host or cells: E. coli (PTP1B co-expressed)
T3 sequence (P10721 with tags, fused parts or gaps): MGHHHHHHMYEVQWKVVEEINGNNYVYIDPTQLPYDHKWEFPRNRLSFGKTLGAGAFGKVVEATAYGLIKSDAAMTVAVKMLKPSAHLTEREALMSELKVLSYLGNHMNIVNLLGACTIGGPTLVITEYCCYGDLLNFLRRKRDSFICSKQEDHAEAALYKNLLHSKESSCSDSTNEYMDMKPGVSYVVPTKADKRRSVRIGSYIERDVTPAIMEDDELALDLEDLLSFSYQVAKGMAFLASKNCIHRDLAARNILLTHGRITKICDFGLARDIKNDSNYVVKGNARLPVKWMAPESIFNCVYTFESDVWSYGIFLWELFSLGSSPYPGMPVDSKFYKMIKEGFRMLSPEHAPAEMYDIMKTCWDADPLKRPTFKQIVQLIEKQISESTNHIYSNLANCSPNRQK

Pyk2 = molecular target: T4, Pyk2 (Homo sapiens, UniProt Q14289); assay: AlphaScreen kinase assay, Pyk2; settings: read-out: IC50, activity toward kinase Pyk2
T4 construct: purchased Upstate Biotechnology
T4 sequence (Q14289 whole entry): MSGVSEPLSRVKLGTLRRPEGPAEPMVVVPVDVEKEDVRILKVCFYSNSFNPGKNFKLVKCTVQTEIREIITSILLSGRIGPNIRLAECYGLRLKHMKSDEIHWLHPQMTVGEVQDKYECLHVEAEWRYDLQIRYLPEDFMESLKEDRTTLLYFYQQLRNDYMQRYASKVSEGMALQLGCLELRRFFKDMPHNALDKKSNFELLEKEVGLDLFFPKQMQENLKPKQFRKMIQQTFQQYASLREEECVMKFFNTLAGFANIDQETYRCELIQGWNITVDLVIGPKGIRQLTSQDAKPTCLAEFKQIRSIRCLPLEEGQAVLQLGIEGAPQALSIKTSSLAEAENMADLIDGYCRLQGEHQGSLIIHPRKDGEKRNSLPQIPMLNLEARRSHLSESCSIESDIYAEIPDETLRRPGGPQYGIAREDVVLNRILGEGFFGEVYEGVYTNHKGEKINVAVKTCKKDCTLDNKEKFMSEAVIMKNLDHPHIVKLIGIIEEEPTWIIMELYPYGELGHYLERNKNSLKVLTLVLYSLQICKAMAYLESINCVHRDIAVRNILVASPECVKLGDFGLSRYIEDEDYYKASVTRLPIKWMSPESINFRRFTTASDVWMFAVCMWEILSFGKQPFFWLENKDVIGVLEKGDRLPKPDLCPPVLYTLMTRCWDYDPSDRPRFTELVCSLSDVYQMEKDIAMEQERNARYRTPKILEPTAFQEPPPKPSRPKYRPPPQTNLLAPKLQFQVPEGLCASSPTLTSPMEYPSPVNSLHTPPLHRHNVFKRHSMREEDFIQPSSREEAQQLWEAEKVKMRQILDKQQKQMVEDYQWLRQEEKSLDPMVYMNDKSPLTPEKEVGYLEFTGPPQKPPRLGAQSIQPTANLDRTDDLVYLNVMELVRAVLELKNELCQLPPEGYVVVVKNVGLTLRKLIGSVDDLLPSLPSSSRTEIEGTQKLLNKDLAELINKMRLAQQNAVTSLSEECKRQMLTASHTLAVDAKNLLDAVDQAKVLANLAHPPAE

Flt1 = molecular target: T5, Flt1 (Homo sapiens, UniProt P17948); assay: AlphaScreen kinase assay, Flt1; settings: read-out: IC50, activity toward kinase Flt1
T5 construct: P1826.pETN6 BI-PTP FLT1 M799-D1165-X WT; His6 (N); made in house; host or cells: E. coli (PTP1B co-expressed)
T5 sequence (P17948 with tags, fused parts or gaps): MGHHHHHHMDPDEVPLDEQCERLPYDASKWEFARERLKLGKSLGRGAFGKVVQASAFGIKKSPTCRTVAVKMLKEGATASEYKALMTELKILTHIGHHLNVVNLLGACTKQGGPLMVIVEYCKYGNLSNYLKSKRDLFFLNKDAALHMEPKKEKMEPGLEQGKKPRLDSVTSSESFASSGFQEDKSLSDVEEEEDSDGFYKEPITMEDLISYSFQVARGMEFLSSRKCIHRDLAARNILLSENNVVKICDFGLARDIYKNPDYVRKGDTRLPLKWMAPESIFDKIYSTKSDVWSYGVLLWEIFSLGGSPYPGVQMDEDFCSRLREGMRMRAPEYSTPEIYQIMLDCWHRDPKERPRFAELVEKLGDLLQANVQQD

B-Raf = molecular target: T6, B-Raf (Homo sapiens, UniProt P15056); assay: AlphaScreen kinase assay, B-Raf; settings: read-out: IC50, activity toward kinase B-Raf
T6 construct: purchased Upstate Biotechnology
T6 sequence (P15056 whole entry): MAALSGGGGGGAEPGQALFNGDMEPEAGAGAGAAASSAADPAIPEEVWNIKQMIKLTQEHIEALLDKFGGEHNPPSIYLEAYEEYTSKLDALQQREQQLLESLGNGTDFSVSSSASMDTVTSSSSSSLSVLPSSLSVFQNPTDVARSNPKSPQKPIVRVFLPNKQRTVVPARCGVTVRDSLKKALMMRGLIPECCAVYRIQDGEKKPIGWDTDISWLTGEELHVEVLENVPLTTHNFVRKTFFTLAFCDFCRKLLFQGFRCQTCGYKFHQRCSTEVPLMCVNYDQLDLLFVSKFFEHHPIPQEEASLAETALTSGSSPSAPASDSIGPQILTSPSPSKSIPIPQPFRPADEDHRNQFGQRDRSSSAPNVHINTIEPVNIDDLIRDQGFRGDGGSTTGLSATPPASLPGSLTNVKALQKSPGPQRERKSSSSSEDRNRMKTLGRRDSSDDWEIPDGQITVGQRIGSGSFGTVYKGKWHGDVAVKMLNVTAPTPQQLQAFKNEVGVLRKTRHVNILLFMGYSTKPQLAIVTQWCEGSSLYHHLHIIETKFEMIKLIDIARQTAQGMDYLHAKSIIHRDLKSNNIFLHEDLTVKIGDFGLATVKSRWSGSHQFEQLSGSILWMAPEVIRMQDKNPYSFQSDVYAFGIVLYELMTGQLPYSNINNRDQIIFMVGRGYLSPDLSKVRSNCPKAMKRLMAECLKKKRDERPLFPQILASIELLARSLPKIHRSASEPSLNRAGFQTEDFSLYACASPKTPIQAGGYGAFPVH

c-Raf-1 = molecular target: T7, c-Raf-1 (Homo sapiens, UniProt P04049); assay: AlphaScreen kinase assay, c-Raf-1; settings: read-out: IC50, activity toward kinase c-Raf-1
T7 construct: purchased Upstate Biotechnology
T7 sequence (P04049 whole entry): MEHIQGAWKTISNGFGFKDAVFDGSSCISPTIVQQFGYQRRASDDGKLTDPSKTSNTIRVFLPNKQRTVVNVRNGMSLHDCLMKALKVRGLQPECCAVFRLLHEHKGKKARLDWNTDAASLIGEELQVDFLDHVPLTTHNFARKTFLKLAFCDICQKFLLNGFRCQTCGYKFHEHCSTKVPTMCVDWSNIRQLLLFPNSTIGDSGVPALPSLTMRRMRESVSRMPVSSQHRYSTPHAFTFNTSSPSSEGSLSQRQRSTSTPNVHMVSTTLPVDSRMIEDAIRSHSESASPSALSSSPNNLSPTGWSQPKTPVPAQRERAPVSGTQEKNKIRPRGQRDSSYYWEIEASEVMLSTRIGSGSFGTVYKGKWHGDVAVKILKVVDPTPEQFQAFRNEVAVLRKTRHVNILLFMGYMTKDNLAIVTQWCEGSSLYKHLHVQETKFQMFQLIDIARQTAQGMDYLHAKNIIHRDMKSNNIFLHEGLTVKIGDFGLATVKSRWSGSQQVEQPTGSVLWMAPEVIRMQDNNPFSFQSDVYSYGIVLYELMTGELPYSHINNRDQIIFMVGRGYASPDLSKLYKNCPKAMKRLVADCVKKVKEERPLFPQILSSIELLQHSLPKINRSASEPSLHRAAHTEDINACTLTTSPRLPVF

FGFR1 = molecular target: T8, FGFR1 (Homo sapiens, UniProt P11362, C488A/C584S); assay: AlphaScreen kinase assay, FGFR1; settings: read-out: IC50, activity toward kinase FGFR
T8 construct: P1351.pET N6 BI-PTP FGFR A458-E765-X C488A, C584S; made in house; host or cells: E. coli (PTP1B co-expressed)
T8 sequence (P11362 458-765 C488A/C584S): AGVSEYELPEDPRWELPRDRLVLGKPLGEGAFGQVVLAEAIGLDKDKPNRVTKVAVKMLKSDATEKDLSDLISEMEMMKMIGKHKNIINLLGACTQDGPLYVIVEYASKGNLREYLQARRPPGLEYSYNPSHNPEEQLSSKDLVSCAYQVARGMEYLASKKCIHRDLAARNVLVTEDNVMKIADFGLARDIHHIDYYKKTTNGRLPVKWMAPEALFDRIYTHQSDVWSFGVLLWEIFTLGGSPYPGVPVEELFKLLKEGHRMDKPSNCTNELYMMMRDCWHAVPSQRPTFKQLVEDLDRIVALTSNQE

Fak = molecular target: T9, Fak (Homo sapiens, UniProt Q05397); assay: AlphaScreen kinase assay, Fak; settings: read-out: IC50, activity toward kinase Fak
T9 construct: P1358.pFastBacHtb FAK S411-Q686-X; His6 with pFastBacHTb leader (TEV site) (N); made in house; host or cells: Sf9 (baculovirus)

Jnk1 = molecular target: T10, Jnk1 (Homo sapiens, UniProt P45983); assay: AlphaScreen kinase assay, Jnk1; settings: read-out: IC50, activity toward kinase Jnk1
T10 construct: purchased Upstate Biotechnology
T10 sequence (P45983 whole entry): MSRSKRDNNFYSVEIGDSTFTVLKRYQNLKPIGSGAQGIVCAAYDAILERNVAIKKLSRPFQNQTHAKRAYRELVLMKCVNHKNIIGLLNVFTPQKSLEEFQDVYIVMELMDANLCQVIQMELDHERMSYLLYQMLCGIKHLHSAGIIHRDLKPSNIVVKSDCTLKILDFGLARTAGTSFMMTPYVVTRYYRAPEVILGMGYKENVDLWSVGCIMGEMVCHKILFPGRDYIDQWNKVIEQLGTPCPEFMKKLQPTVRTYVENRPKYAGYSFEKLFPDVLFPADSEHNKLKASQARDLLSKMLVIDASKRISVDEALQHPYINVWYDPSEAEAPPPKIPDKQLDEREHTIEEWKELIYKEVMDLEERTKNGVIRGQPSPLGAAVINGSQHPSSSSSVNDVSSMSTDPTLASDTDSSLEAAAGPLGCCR

Jnk2 = molecular target: T11, Jnk2 (Homo sapiens, UniProt P45984); assay: AlphaScreen kinase assay, Jnk2; settings: read-out: IC50, activity toward kinase Jnk2
T11 construct: purchased Roche Protein Expression Group (Indianapolis, IN)
Method in brief: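 Peptide phosphorylation detected by proximity: streptavidin donor beads bind biotinylated substrate, acceptor beads carry antibody to phosphorylated substrate, singlet oxygen transfer gives emission. Dose-response over 8 points (1:3 steps); stocks 20 mM in DMSO.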

Jnk3 = molecular target: T12, Jnk3 (Homo sapiens, UniProt P53779); assay: AlphaScreen kinase assay, Jnk3; settings: read-out: IC50, activity toward kinase Jnk3
T12 construct: purchased Upstate Biotechnology

Src = molecular target: T13, Src (Homo sapiens, UniProt P12931); assay: AlphaScreen kinase assay, Src; settings: read-out: IC50, activity toward kinase Src
T13 construct: P1144. pET-N6 BI-PTP SRC V86-L536-X; made in house

Ret = molecular target: T14, Ret (Homo sapiens, UniProt P07949); assay: AlphaScreen kinase assay, Ret; settings: read-out: IC50, activity toward kinase Ret
T14 construct: P1378.pET-SF BI-PTP RET H661-R1012 HIS; made in house
T14 sequence (P07949 with tags, fused parts or gaps): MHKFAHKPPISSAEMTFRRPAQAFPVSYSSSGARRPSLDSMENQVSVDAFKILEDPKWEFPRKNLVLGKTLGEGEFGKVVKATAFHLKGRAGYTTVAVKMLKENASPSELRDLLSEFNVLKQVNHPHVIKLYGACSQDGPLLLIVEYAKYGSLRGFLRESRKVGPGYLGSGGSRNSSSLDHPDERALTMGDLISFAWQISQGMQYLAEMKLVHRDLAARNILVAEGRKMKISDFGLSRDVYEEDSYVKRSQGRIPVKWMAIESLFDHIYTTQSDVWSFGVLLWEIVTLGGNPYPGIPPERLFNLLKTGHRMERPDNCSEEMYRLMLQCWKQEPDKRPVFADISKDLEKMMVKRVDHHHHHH

Btk = molecular target: T15, Btk (Homo sapiens, UniProt Q06187); assay: Z'-Lyte FRET kinase assay (Invitrogen), Btk; settings: read-out: IC50, activity toward kinase Btk
T15 construct: purchased Invitrogen (assay run by Invitrogen)

Measured: IC50

CCCC(=O)Nc1ccc(F)c(C(OC)c2c[nH]c3ncc(OC)cc23)c1F (stereo not drawn) [Compound P-1368]
≤ 10 µM: B-Raf V600E | Fms | Kit | Pyk2

Clc1cccc(Nc2ccc3cc[nH]c3n2)c1 [Compound P-1373, (3-Chloro-phenyl)-(1H-pyrrolo[2,3-b]pyridin-6-yl)-amine]
≤ 10 µM: Flt1 | Pyk2

COC(c1c(F)ccc(NS(=O)(=O)C(C)C)c1F)c1c[nH]c2ncc(Br)cc12 (stereo not drawn) [Compound P-0356, Propane-2-sulfonic acid {3-[(5-bromo-1H-pyrrolo[2,3-b]pyridin-3-yl)-methoxy-methyl]-2,4-difluoro-phenyl}-amide]
≤ 10 µM: B-Raf | B-Raf V600E | c-Raf-1 | Pyk2

CCCS(=O)(=O)Nc1ccc(F)c(C(OC)c2c[nH]c3ncc(-c4ccccc4)cc23)c1F (stereo not drawn) [Compound P-0957]
≤ 10 µM: B-Raf V600E | c-Raf-1 | Pyk2

CCCS(=O)(=O)Nc1ccc(F)c(C(=O)c2c[nH]c3ncc(-c4ccc(C(F)(F)F)cc4)cc23)c1F [Compound P-0912, Propane-1-sulfonic acid {2,4-difluoro-3-[5-(4-trifluoromethyl-phenyl)-1H-pyrrolo[2,3-b]pyridine-3-carbonyl]-phenyl}-amide]
≤ 10 µM: B-Raf | B-Raf V600E | c-Raf-1 | FGFR1 | Pyk2

OC(c1ccccc1OCc1ccccc1)c1c[nH]c2ncc(Br)cc12 (stereo not drawn) [Compound P-1380]
≤ 10 µM: FGFR1 | Fms | Kit | Pyk2

Brc1cnc2[nH]cc(Cc3ccccc3OCc3ccccc3)c2c1 [Compound P-1379]
≤ 10 µM: Pyk2

CCCS(=O)(=O)Nc1ccc(F)c(Cc2c[nH]c3ncc(N4CCOCC4)cc23)c1F [Compound P-0964, Propane-1-sulfonic acid [2,4-difluoro-3-(5-morpholin-4-yl-1H-pyrrolo[2,3-b]pyridin-3-ylmethyl)-phenyl]-amide]
≤ 10 µM: B-Raf V600E | c-Raf-1 | FGFR1 | Kit | Pyk2

Cc1cc(Nc2ccc3cc[nH]c3n2)no1 [Compound P-1376, (5-Methyl-isoxazol-3-yl)-(1H-pyrrolo[2,3-b]pyridin-6-yl)-amine]
≤ 10 µM: Fms | Kit | Pyk2

NC(=O)c1cccc(-c2cnc3[nH]cc(Cc4ccccc4OCc4ccccc4)c3c2)c1 [Compound P-1381]
≤ 10 µM: B-Raf V600E | FGFR1 | Fms | Pyk2

CCCC(=O)Nc1ccc(F)c(C(O)c2c[nH]c3ncc(OC)cc23)c1F (stereo not drawn) [Compound P-1367]
≤ 10 µM: FGFR1 | Kit | Pyk2

CCCNC(=O)Nc1ccc(F)c(C(=O)c2c[nH]c3ncc(-c4cccnc4)cc23)c1F [Compound P-0774, 1-[2,4-difluoro-3-(5-pyridin-3-yl-1H-pyrrolo[2,3-b]pyridine-3-carbonyl)-phenyl]-3-propyl-urea]
not listed: Pyk2 | Ret | Btk
≤ 10 µM: all other assays above

CC(=O)c1cccc(-c2ccnc3[nH]ccc23)c1 [Compound P-0116]
≤ 10 µM: Pyk2 | Ret

CCCS(=O)(=O)Nc1ccc(F)c(C(O)c2c[nH]c3ncc(Nc4ccccc4)cc23)c1F (stereo not drawn) [Compound P-0928]
≤ 10 µM: B-Raf | B-Raf V600E | c-Raf-1 | Pyk2

CCCCNC(=O)n1ccc2c(C(=O)c3c[nH]c4ncc(-c5cccnc5)cc34)cccc21 [Compound P-1486, 4-(5-Pyridin-3-yl-1H-pyrrolo[2,3-b]pyridine-3-carbonyl)-indole-1-carboxylic acid butylamide]
not listed: Pyk2 | c-Raf-1 | Ret
≤ 10 µM: all other assays above

c1ccc(N2CCOCC2)c(Nc2ccc3cc[nH]c3n2)c1 [Compound P-1377, (2-Morpholin-4-yl-phenyl)-(1H-pyrrolo[2,3-b]pyridin-6-yl)-amine]
≤ 10 µM: FGFR1 | Pyk2

COC(c1c(F)ccc(NS(=O)(=O)C(C)C)c1F)c1c[nH]c2ncc(-c3cccnc3)cc12 (stereo not drawn) [Compound P-0947, Propane-2-sulfonic acid {2,4-difluoro-3-[methoxy-(5-pyridin-3-yl-1H-pyrrolo[2,3-b]pyridin-3-yl)-methyl]-phenyl}-amide]
≤ 10 µM: B-Raf | B-Raf V600E | c-Raf-1 | FGFR1 | Pyk2

CCCS(=O)(=O)Nc1ccc(F)c(C(O)c2c[nH]c3ncc(-c4ccccc4)cc23)c1F (stereo not drawn) [Compound P-0946]
≤ 10 µM: B-Raf | B-Raf V600E | c-Raf-1 | Pyk2

CC(=O)Nc1ccc(F)c(C(O)c2c[nH]c3ncc(-c4cccnc4)cc23)c1F (stereo not drawn) [Compound P-1069]
≤ 10 µM: B-Raf V600E | Pyk2
